# Reference: patent US20250340557A1, “PYRIMIDINE DERIVATIVE” (ASKA PHARMACEUTICAL CO., LTD., priority 2022, published 2025)
# Target: T1, human mPGES-1 (Homo sapiens, UniProt O14684)
# T1 construct: made in house; host or cells: COS-1 cells (transient transfection; microsomal fraction used as enzyme)
# T1 sequence (O14684 1-152): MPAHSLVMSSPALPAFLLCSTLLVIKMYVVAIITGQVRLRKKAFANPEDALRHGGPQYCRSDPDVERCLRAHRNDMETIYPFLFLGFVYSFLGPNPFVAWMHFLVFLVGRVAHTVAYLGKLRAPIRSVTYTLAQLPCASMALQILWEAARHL
# Assay: Test for mPGES-1 inhibitory activity (microsomal enzyme, PGE2 EIA)
# Format: biochemical
# Details: microsomes from COS-1 cells transfected with human mPGES-1 cDNA; substrate PGH2 1 μM; 4° C., 4 minutes; PGE2 measured by EIA; read-out: h mPGES1 IC50
# Outline: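 Enzyme source was microsomes from COS-1 cells transiently expressing human mPGES-1, in sodium phosphate pH 7.2 with 2.5 mM GSH, 1 mM EDTA and 2% DMSO final. After a 15 min preincubation with compound at 4 °C, 1 μM PGH2 (final) reacted for 4 min at 4 °C.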
row,IC50,SMILES
1,23 nM,"Cc1cc(=O)[nH]c(-c2c(C(F)(F)F)ccc(CNC(=O)[C@H]3CC[C@H](OCc4ccc(Cl)cc4)CC3)c2F)n1 [Example 105, trans-4-[(4-chlorobenzyl)oxy]-N-[2-fluoro-3-(4-methyl-6-oxo-1,6-dihydropyrimidin-2-yl)-4-(trifluoromethyl)benzyl]cyclohexane-1-carboxamide]"
2,13 nM,"Cc1cc(=O)[nH]c(-c2c(C(F)(F)F)ccc(CNC(=O)[C@H]3CC[C@H](OCc4ccc(F)c(F)c4)CC3)c2F)n1 [Example 107, trans-4-[(3,4-difluorobenzyl)oxy]-N-[2-fluoro-3-(4-methyl-6-oxo-1,6-dihydropyrimidin-2-yl)-4-(trifluoromethyl)benzyl]cyclohexane-1-carboxamide]"
3,38 nM,"Cc1cc(=O)[nH]c(-c2c(C(F)(F)F)ccc(CNC(=O)[C@H]3CC[C@H](OCc4ccccc4Cl)CC3)c2F)n1 [Example 108, trans-4-[(2-chlorobenzyl)oxy]-N-[2-fluoro-3-(4-methyl-6-oxo-1,6-dihydropyrimidin-2-yl)-4-(trifluoromethyl)benzyl]cyclohexane-1-carboxamide]"
4,10 nM,"Cc1cc(=O)[nH]c(-c2c(C(F)(F)F)ccc(CNC(=O)[C@H]3CC[C@H](OCc4cccc(C(F)(F)F)c4)CC3)c2F)n1 [Example 109, trans-N-[2-fluoro-3-(4-methyl-6-oxo-1,6-dihydropyrimidin-2-yl)-4-(trifluoromethyl)benzyl]-4-{[3-(trifluoromethyl)benzyl]oxy}cyclohexane-1-carboxamide]"
5,19 nM,"Cc1cc(=O)[nH]c(-c2c(C(F)(F)F)ccc(CNC(=O)[C@H]3CC[C@H](OCc4cccc(Cl)c4)CC3)c2F)n1 [Example 111, trans-4-[(3-chlorobenzyl)oxy]-N-[2-fluoro-3-(4-methyl-6-oxo-1,6-dihydropyrimidin-2-yl)-4-(trifluoromethyl)benzyl]cyclohexane-1-carboxamide]"
6,29 nM,"O=c1cc(C(F)(F)F)nc(-c2c(C(F)(F)F)ccc(CNC(=O)[C@H]3CC[C@H](OCc4cccc(C(F)(F)F)c4)CC3)c2F)[nH]1 [Example 112, trans-N-{2-fluoro-3-[6-oxo-4-(trifluoromethyl)-1,6-dihydropyrimidin-2-yl]-4-(trifluoromethyl)benzyl}-4-{[3-(trifluoromethyl)benzyl]oxy}cyclohexane-1-carboxamide]"
7,5.2 nM,"O=c1cc(C(F)(F)F)nc(-c2c(C(F)(F)F)ccc(CNC(=O)[C@H]3CC[C@H](OCc4ccc(F)cc4F)CC3)c2F)[nH]1 [Example 114, trans-4-[(2,4-difluorobenzyl)oxy]-N-{2-fluoro-3-[6-oxo-4-(trifluoromethyl)-1,6-dihydropyrimidin-2-yl]-4-(trifluoromethyl)benzyl}cyclohexane-1-carboxamide]"
8,21 nM,"O=c1cc(C(F)(F)F)nc(-c2c(C(F)(F)F)ccc(CNC(=O)[C@H]3CC[C@H](OCc4ccc(F)c(F)c4)CC3)c2F)[nH]1 [Example 115, trans-4-[(3,4-difluorobenzyl)oxy]-N-{2-fluoro-3-[6-oxo-4-(trifluoromethyl)-1,6-dihydropyrimidin-2-yl]-4-(trifluoromethyl)benzyl}cyclohexane-1-carboxamide]"
9,10 nM,"O=c1cc(C(F)F)nc(-c2c(C(F)(F)F)ccc(CNC(=O)[C@H]3CC[C@H](OCc4ccc(Cl)cc4)CC3)c2F)[nH]1 [Example 116, trans-4-[(4-chlorobenzyl)oxy]-N-{3-[4-(difluoromethyl)-6-oxo-1,6-dihydropyrimidin-2-yl]-2-fluoro-4-(trifluoromethyl)benzyl}cyclohexane-1-carboxamide]"
10,< 1 nM,"O=c1cc(C(F)(F)F)nc(-c2c(C(F)(F)F)ccc(CNC(=O)[C@H]3CC[C@H](OCc4cc(F)cc(F)c4)CC3)c2F)[nH]1 [Example 117, trans-4-[(3,5-difluorobenzyl)oxy]-N-{2-fluoro-3-[6-oxo-4-(trifluoromethyl)-1,6-dihydropyrimidin-2-yl]-4-(trifluoromethyl)benzyl}cyclohexane-1-carboxamide]"
11,< 1 nM,"O=c1cc(C(F)(F)F)nc(-c2c(C(F)(F)F)ccc(CNC(=O)[C@H]3CC[C@H](OCc4ccc(Cl)cc4F)CC3)c2F)[nH]1 [Example 118, trans-4-[(4-chloro-2-fluorobenzyl)oxy]-N-{2-fluoro-3-[6-oxo-4-(trifluoromethyl)-1,6-dihydropyrimidin-2-yl]-4-(trifluoromethyl)benzyl}cyclohexane-1-carboxamide]"
12,< 1 nM,"O=c1cc(C(F)(F)F)nc(-c2c(C(F)(F)F)ccc(CNC(=O)[C@H]3CC[C@H](OCc4cc(F)cc(Cl)c4)CC3)c2F)[nH]1 [Example 119, trans-4-[(3-chloro-5-fluorobenzyl)oxy]-N-{2-fluoro-3-[6-oxo-4-(trifluoromethyl)-1,6-dihydropyrimidin-2-yl]-4-(trifluoromethyl)benzyl}cyclohexane-1-carboxamide]"
13,11 nM,"Cc1cc(=O)[nH]c(-c2c(C(F)(F)F)ccc(CNC(=O)[C@H]3CC[C@H](OCc4cc(F)cc(F)c4)CC3)c2F)n1 [Example 120, trans-4-[(3,5-difluorobenzyl)oxy]-N-[2-fluoro-3-(4-methyl-6-oxo-1,6-dihydropyrimidin-2-yl)-4-(trifluoromethyl)benzyl]cyclohexane-1-carboxamide]"
14,< 1 nM,"Cc1cc(=O)[nH]c(-c2c(C(F)(F)F)ccc(CNC(=O)[C@H]3CC[C@H](OCc4ccc(Cl)cc4F)CC3)c2F)n1 [Example 121, trans-4-[(4-chloro-2-fluorobenzyl)oxy]-N-[2-fluoro-3-(4-methyl-6-oxo-1,6-dihydropyrimidin-2-yl)-4-(trifluoromethyl)benzyl]cyclohexane-1-carboxamide]"
15,< 1 nM,"Cc1cc(=O)[nH]c(-c2c(C(F)(F)F)ccc(CNC(=O)[C@H]3CC[C@H](OCc4cc(F)cc(Cl)c4)CC3)c2F)n1 [Example 122, trans-4-[(3-chloro-5-fluorobenzyl)oxy]-N-[2-fluoro-3-(4-methyl-6-oxo-1,6-dihydropyrimidin-2-yl)-4-(trifluoromethyl)benzyl]cyclohexane-1-carboxamide]"
16,< 1 nM,"Cc1nc(-c2c(C(F)(F)F)ccc(CNC(=O)[C@H]3CC[C@H](OCc4cccc(Cl)c4)CC3)c2F)[nH]c(=O)c1F [Example 123, trans-4-[(3-chlorobenzyl)oxy]-N-[2-fluoro-3-(5-fluoro-4-methyl-6-oxo-1,6-dihydropyrimidin-2-yl)-4-(trifluoromethyl)benzyl]cyclohexane-1-carboxamide]"
17,< 1 nM,"CCc1nc(-c2c(C(F)(F)F)ccc(CNC(=O)[C@H]3CC[C@H](OCc4ccccc4Cl)CC3)c2F)[nH]c(=O)c1F [Example 124, trans-4-[(2-chlorobenzyl)oxy]-N-[3-(4-ethyl-5-fluoro-6-oxo-1,6-dihydropyrimidin-2-yl)-2-fluoro-4-(trifluoromethyl)benzyl]cyclohexane-1-carboxamide]"
18,19 nM,"CCc1nc(-c2c(C(F)(F)F)ccc(CNC(=O)[C@H]3CC[C@H](OCc4ccc(Cl)cc4)CC3)c2F)[nH]c(=O)c1F [Example 125, trans-4-[(4-chlorobenzyl)oxy]-N-[3-(4-ethyl-5-fluoro-6-oxo-1,6-dihydropyrimidin-2-yl)-2-fluoro-4-(trifluoromethyl)benzyl]cyclohexane-1-carboxamide]"
19,< 1 nM,"Cc1nc(-c2c(C(F)(F)F)ccc(CNC(=O)[C@H]3CC[C@H](OCc4ccc(F)cc4F)CC3)c2F)[nH]c(=O)c1F [Example 126, trans-4-[(2,4-difluorobenzyl)oxy]-N-[2-fluoro-3-(5-fluoro-4-methyl-6-oxo-1,6-dihydropyrimidin-2-yl)-4-(trifluoromethyl)benzyl]cyclohexane-1-carboxamide]"
20,< 1 nM,"Cc1nc(-c2c(C(F)(F)F)ccc(CNC(=O)[C@H]3CC[C@H](OCc4ccc(F)c(F)c4)CC3)c2F)[nH]c(=O)c1F [Example 127, trans-4-[(3,4-difluorobenzyl)oxy]-N-[2-fluoro-3-(5-fluoro-4-methyl-6-oxo-1,6-dihydropyrimidin-2-yl)-4-(trifluoromethyl)benzyl]cyclohexane-1-carboxamide]"
21,13 nM,"Cc1nc(-c2c(C(F)(F)F)ccc(CNC(=O)[C@H]3CC[C@H](OCc4ccc(Cl)cc4F)CC3)c2F)[nH]c(=O)c1F [Example 128, trans-4-[(4-chloro-2-fluorobenzyl)oxy]-N-[2-fluoro-3-(5-fluoro-4-methyl-6-oxo-1,6-dihydropyrimidin-2-yl)-4-(trifluoromethyl)benzyl]cyclohexane-1-carboxamide]"
22,25 nM,"CCc1cc(=O)[nH]c(-c2c(C(F)(F)F)ccc(CNC(=O)[C@H]3CC[C@H](OCc4ccc(F)cc4F)CC3)c2F)n1 [Example 129, trans-4-[(2,4-difluorobenzyl)oxy]-N-[3-(4-ethyl-6-oxo-1,6-dihydropyrimidin-2-yl)-2-fluoro-4-(trifluoromethyl)benzyl]cyclohexane-1-carboxamide]"
23,< 1 nM,"Cc1nc(-c2c(C(F)(F)F)ccc(CNC(=O)[C@H]3CC[C@H](OCc4cccc(C(F)(F)F)c4)CC3)c2F)[nH]c(=O)c1F [Example 130, trans-N-[2-fluoro-3-(5-fluoro-4-methyl-6-oxo-1,6-dihydropyrimidin-2-yl)-4-(trifluoromethyl)benzyl]-4-{[3-(trifluoromethyl)benzyl]oxy}cyclohexane-1-carboxamide]"
24,< 1 nM,"Cc1nc(-c2c(C(F)(F)F)ccc(CNC(=O)[C@H]3CC[C@H](OCc4cc(F)cc(Cl)c4)CC3)c2F)[nH]c(=O)c1F [Example 131, trans-4-[(3-chloro-5-fluorobenzyl)oxy]-N-[2-fluoro-3-(5-fluoro-4-methyl-6-oxo-1,6-dihydropyrimidin-2-yl)-4-(trifluoromethyl)benzyl]cyclohexane-1-carboxamide]"
